Measured values published in patent US11957649B2, “Methods and pharmaceutical preparations for elevating ketone utilization” (GLYKON TECHNOLOGIES GROUP, LLC, priority 2020, dated 2024).

Key:
[1] = test system: intestinal alpha-glucosidase; conditions: background statement, in vitro; cited from earlier work
pancreatic alpha-amylase = biological target: T1, pancreatic alpha-amylase (Homo sapiens, UniProt P04746); conditions: background statement, in vitro; cited from earlier work
T1 sequence (P04746 16-511): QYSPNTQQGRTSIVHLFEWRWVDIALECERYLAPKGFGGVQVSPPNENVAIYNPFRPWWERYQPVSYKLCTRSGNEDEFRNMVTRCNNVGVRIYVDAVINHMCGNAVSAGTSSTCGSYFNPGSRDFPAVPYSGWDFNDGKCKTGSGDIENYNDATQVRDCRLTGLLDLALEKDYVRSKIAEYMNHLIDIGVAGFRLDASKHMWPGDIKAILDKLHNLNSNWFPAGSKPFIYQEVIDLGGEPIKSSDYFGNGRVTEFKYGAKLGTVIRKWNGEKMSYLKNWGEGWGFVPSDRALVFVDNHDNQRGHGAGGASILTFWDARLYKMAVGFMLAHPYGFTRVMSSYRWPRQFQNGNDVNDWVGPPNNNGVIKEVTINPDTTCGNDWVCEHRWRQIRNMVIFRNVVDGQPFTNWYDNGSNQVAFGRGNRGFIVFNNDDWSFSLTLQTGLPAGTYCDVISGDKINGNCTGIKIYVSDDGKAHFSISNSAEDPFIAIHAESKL

[2] = Blood levels of biomolecules before and 90 minutes after administration; format: in vivo, human
Protocol: Subject 5 was a person, weighing approximately 285 pounds and with a normal fasting blood sugar level of 115-120. First, blood was drawn from Subject 5 and levels of various biomolecules were measured. Next, Subject 5 was administered 16.66 ml of the Example 1 formulation on an empty stomach, i.e. wherein with each 16.66 ml the subject received 5,000 mg of the potassium-magnesium (−)-hydroxycitric acid salt, corresponding to 3490 mg of (−)-hydroxycitric acid. 90 minutes after the administration, blood was drawn from Subject 5 and levels of the various biomolecules were remeasured.
Subject 6 was administered 16.66 ml of the Example 1 formulation on an empty stomach, i.e. wherein with each 16.66 ml the subject received 5,000 mg of the potassium-magnesium (−)-hydroxycitric acid salt, corresponding to 3490 mg of (−)-hydroxycitric acid. 90 minutes after the administration, blood was drawn from Subject 6 and levels of the various biomolecules were remeasured.

ATP citrate lyase = biological target: T2, ATP citrate lyase (Homo sapiens, UniProt P53396); conditions: background statement; cited from earlier work
T2 sequence (P53396 1-1101): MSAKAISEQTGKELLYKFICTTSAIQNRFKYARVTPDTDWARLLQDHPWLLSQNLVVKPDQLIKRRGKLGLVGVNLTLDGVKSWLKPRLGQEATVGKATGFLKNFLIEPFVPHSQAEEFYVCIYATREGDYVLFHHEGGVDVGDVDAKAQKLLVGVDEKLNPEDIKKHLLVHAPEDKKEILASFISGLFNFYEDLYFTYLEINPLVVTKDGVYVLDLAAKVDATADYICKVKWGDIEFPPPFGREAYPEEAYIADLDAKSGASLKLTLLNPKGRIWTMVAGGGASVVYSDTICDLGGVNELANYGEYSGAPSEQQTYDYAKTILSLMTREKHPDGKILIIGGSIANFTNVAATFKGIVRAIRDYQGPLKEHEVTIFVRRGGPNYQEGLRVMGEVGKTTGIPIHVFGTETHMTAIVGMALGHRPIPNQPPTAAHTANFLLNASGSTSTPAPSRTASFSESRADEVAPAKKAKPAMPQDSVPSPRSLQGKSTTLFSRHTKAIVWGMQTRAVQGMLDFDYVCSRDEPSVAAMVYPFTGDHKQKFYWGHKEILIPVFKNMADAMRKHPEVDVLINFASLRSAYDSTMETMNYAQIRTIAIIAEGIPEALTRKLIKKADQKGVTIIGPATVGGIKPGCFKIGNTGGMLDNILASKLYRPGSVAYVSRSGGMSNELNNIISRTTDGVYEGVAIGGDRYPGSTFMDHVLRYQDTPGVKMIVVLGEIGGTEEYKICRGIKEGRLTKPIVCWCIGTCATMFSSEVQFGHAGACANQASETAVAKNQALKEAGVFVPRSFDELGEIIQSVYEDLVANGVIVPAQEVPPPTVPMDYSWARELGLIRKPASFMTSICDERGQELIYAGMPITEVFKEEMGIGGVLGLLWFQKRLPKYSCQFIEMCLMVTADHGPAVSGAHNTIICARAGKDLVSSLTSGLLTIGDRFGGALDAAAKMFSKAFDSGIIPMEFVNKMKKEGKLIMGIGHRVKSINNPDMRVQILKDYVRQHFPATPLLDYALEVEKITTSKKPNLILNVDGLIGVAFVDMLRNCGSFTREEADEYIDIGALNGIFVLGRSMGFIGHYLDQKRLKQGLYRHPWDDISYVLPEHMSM

[3] = fNIRS measurement of blood hemoglobin and oxygen saturation after oral administration; format: in vivo, human; conditions: overall statement on HCA administration
Protocol: Subjects 1-4 were orally administered the formulation of Example 1. The Subjects were given either one or two administrations of 8.33 ml of the aqueous formulation of Example 1 on an empty stomach, i.e. wherein with each 8.33 ml the subject received 2,500 mg of the potassium-magnesium (−)-hydroxycitric acid salt, corresponding to 1745 mg of (−)-hydroxycitric acid.
fNIRS testing (functional Near Infrared Spectroscopy) was used to measure blood hemoglobin and oxygen saturation. fNIRS can be used to determine real-time peripheral and cerebral hemodynamic responses. For example, relative changes in HbR (deoxygen saturation), HbO (oxygen saturation), and HbT (total hemoglobin concentration), etc. can be determined via application of Modified Beer Lambert Law. HbR, Hb=deoxygen saturation (shown as the thinnest and bottom dashed line in FIG. 1) HbO, HbO2=oxygen saturation (shown as the medium-thickness and middle line in FIG. 1) HbT=total hemoglobin concentration (shown as the darkest, thickest and top line in FIG. 1). On the graphs, time is in seconds.

[4] = overall conclusion on HCA administration

| SMILES | inhibition of intestinal alpha-glucosidase [1] | inhibition of pancreatic alpha-amylase (pancreatic alpha-amylase) | Ketones Result ([2]; Subject 5, 16.66 ml on empty stomach, 90 mins after administration, before (fasting) 0.6) | cortisol [2, 4] | levels of ketones [2, 4] | triglycerides [2, 4] | glucose ([2]; overall conclusion on HCA administration, in some cases transient) | inhibition of ATP citrate lyase (ATP citrate lyase) | blood hemoglobin [3] | oxygen saturation [3] |
| --- | --- | --- | --- | --- | --- | --- | --- | --- | --- | --- |
| O=C(O)C[C@](O)(C(=O)O)[C@H](O)C(=O)O [(2S,3R)-HCA] | inhibits | inhibits |  |  |  |  |  |  |  |  |
| O=C(O)CC(O)(C(=O)O)C(O)C(=O)O (stereo not shown) [HCA, 1,2-dihydroxypropane-1,2,3-tricarboxylic acid] |  |  | 0.5 | decreased | relatively stable or slightly lower levels | decreased | increased | competitive inhibitor | increased | increased |
